Measured values reported in US20260234630A1, “Methods for Treating Multiple Myeloma” (Celgene Corporation, priority 2022, published 2026).

Key:
Format in all cases: cell-based
H929 cells = assay: Gene expression changes by Affymetrix microarray in H929 cells; details: POM 1 μM, 24 hour
Experimental: (§1) FIG. 1A-1F. Down regulation of UHRF1 transcription by IMiDs correlates with drug sensitivity of multiple myeloma. (1A) Volcano plot of protein expression changes determined by mass spectrometry in H929 cells at 24 hr of treatment with CC-220 (0.1 μM) or DMSO control. X axis, Log2fold change (FC); Y axis, significance,-log 10 [p-value]. […] (1B) Volcano plot of gene expression changes determined by Affymetrix microarray in H929 cells treated with POM (1 μM) or DMSO for 24 hr. X axis, Log2fold change (FC); Y axis, significance,-log 10 [p-value], n=2 technical replicates). […] (1C) Western blot analysis protein expression of UHRF1, Ikaros, Aiolos and ZFP91 in H929 cells treated with 1 μM POM for indicated time. (1D) qRT-PCR analysis of UHRF1 gene expression levels in cells as in (1C). Error bars represent the SEM from duplicate measurements. (1E) Western blot analysis protein expression of UHRF1 and indicated proteins in MM cells treated with DMSO (−) or 1 μM POM (+) for 3 days. GAPDH serves as a loading control. (1F) Thymidine incorporation of various MM cell lines treated with indicated dose of POM for 3 days. Error bars represent the SEM from technical replicates.
Given that UHRF1 has been reported to be oncogenic in other cancer types, including MM (Gu et al., 2020, BMC Biol, 18:33), the functions of UHRF1 in MM and the mechanisms underlying its gene regulation in response to immunomodulator drugs that binds to cereblon was explored.

UHRF1 = assay: Western blot of UHRF1 protein in MM cells
Experimental: as §1
FIG. 2A-2E. UHRF1 expression is positively regulated by Ikaros and Aiolos in IMiDs sensitive MM cells. (2A) Western blot analysis protein expression of UHRF1, Ikaros, Aiolos, ZFP91 and Cereblon expression in control [shLuciferase (shLuc)] and cereblon knockdown (shCRBN) H929 cells treated with DMSO and 1 μM POM for 3 days. GAPDH, loading control. Arrow head, UHRF1. (2B) qRT-PCR analysis of UHRF1 gene expression levels in cells as in (2A). Data was normalized to ACTB. Error bars represent the SEM of technical duplicates. *** P<0.001 (Two-tailed unpaired Student's t-test). (2C) Western blot analysis protein expression of UHRF1, Ikaros and Aiolos in stably transduced H929 cells after Dox induction (0, 10, 50 or 100 ng/ml) for 3 days of non-target shRNA (shNT) or shRNAs targeting Ikaros (shIKZF1) or Aiolos (shIKZF3). (2D) qRT-PCR analysis of UHRF1 gene expression levels in cells as in (2C). Shown are cells induced with Dox (50 ng/ml) for 3 days. Data was normalized to GAPDH. Error bars represent the SEM of technical duplicates. *P<0.05, ** P<0.01, *** P<0.001, **** P<0.0001 (Two-tailed unpaired Student's t-test). (2E) ChIP-qPCR analysis of the occupancy Aiolos (upper panel) or H3K27ac (lower panel) occupancy at transcription star site (TSS), gene body (+7 kb) and gene end (GE) of UHRF1 gene in H929, MM1.S or RPMI 8226 cells treated with DMSO or 1 μM POM for 24 hr. ChIP with control rabbit IgG (IgG) serves as a negative control. Error bars represent the SEM of technical triplicates. * P<0.05, ** P<0.01, **** P<0.0001 (Two-tailed unpaired Student's t-test).
FIG. 6A-6D. […]

IRF4 and c-Myc = assay: Western blot of IRF4 and c-Myc in MM cells; details: MM1.S, DF15 and U266 cells; 1 μM POM, 3 days
Experimental: as §1, with “(1F) Thymidine incorporation of various MM cell lines treated with indicated dose of POM for 3 days. Error bars represent the SEM from technical replicates.” left out
Cells were lysed with cell lysis buffer (50 mM TrisHCl pH7.4, 250 mM NaCl, 0.5% Triton X100, 10% glycerol) supplemented with protease inhibitor cocktail. […] The protein concentration was measured by a Bradford Protein Assay (Bio-Rad). […] Proteins of interested were detected incubation with primary antibodies listed below at 4° C. overnight. […]

[1] = test system: multiple myeloma (MM) cells; assay: (3H)-thymidine incorporation assay of MM cell lines; details: POM 3 days
Experimental: as §1
(3H)-thymidine incorporation assay was performed as previously described (PMID: 23252516) with minor modifications. Briefly, 1×10^4 or 2×10^5 multiple myeloma (MM) cells were cultured in 96-well culture plates in complete media with the indicated concentration of pomalidomide (POM) or DMSO control for 3 days. 37 kBg (3H)-thymidine was added to each will at the final 6 hour of incubation.

Nc1cccc2c1C(=O)N(C1CCC(=O)NC1=O)C2=O (stereo not drawn) [POM, pomalidomide]
UHRF1 gene expression (microarray) (H929 cells): one of the most significantly downregulated genes | expression of interferon response genes IFIT1 and IFIT3 (H929 cells): drastic induction | gene expression of cell cycle regulators E2F1, MYB and CDC45 (H929 cells): most significantly downregulated genes | time to profound reduction of UHRF1 protein level (UHRF1; H929 cells, POM 1 μM, time course): ≤ 48 h | UHRF1 protein levels (UHRF1; MC/CAR and RPMI 8226 cells, 1 μM POM, 3 days): without affecting | UHRF1 expression level (UHRF1; sensitive cell lines H929, MM1.S, DF15 and U266, 1 μM POM, 72 hours): downregulated | downregulation of UHRF1 protein by POM under cereblon knockdown (UHRF1; shCRBN vs shLuc H929 cells, 1 μM POM, 3 days): rescued | IRF4 and c-Myc expression (IRF4 and c-Myc): downregulated | drug sensitivity of cell lines ([1]; H929, MM1.S, DF15 and U266): sensitive | drug sensitivity of cell lines ([1]; H929 PR and DF15 PR (diminished cereblon expression)): acquired resistance | drug sensitivity of cell line ([1]; MC/CAR): less sensitive | drug sensitivity of cell line ([1]; RPMI 8226): intrinsically resistant
